Laboratory results: PubChem BioAssay AID200 (DTP/NCI, 2004)
Where “and” joins values, the source holds several entries; their conditions need not be identical. Identical values can stand only once. Toxic doses and inconclusive results are not listed.

Test system: B6C3F1 mice, B16 melanoma ip, median survival T/C
Assay: NCI In Vivo Anticancer Drug Screen. Data for tumor model B16 Melanoma (intraperitoneal) in B6C3F1 mice
Conditions: endpoint: median survival time, higher = longer survival
Procedure, shortened: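 Tumor-bearing mice received test compound; a separate group got vehicle only. Survival was then compared, with results reported as treated over control.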

[1] = dose: 25.0 mg/kg/injection, schedule: Q01DX009 (ip), vehicle: saline
[2] = dose: 50.0 mg/kg/injection, schedule: Q01DX009 (ip), vehicle: saline with Tween-80
[3] = dose: 100.0 mg/kg/injection, schedule: Q01DX009 (ip), vehicle: saline with Tween-80
[4] = dose: 200.0 mg/kg/injection, schedule: Q01DX009 (ip), vehicle: saline with Tween-80
[5] = dose: 6.25 mg/kg/injection, schedule: Q01DX009 (ip), vehicle: Klucel (hydroxypropylcellulose) (HPC)
[6] = dose: 25.0 mg/kg/injection, schedule: Q01DX009 (ip), vehicle: Klucel (hydroxypropylcellulose) (HPC)
[7] = dose: 6.25 mg/kg/injection, schedule: Q01DX009 (ip), vehicle: saline with Tween-80
[8] = dose: 12.5 mg/kg/injection, schedule: Q01DX009 (ip), vehicle: Klucel (hydroxypropylcellulose) (HPC)
[9] = dose: 25.0 mg/kg/injection, schedule: Q01DX009 (ip), vehicle: saline with Tween-80
[10] = dose: 400.0 mg/kg/injection, schedule: Q01DX009 (ip), vehicle: saline with Tween-80
[11] = dose: 0.02 mg/kg/injection, schedule: Q01DX009 (ip), vehicle: saline

NCCSC(C[N+](=O)[O-])c1ccccc1Cl (stereo not drawn)
T/C (dose: 6.25 mg/kg/injection, schedule: Q01DX009 (ip), vehicle: saline): 103 % of control
T/C (dose: 12.5 mg/kg/injection, schedule: Q01DX009 (ip), vehicle: saline): 114 % of control
T/C [1]: 93 % of control

CC(C)(C)OC(=O)NCCCCC(NC(=O)OC(C)(C)C)C(=O)O (stereo not drawn)
T/C [2]: 97 % of control
T/C [3]: 104 % of control
T/C [4]: 95 % of control

COC(=O)Nc1cn2cc(C(=O)c3cccs3)ccc2n1
T/C [5]: 122 % of control
T/C [6]: 159 % of control and 175 % of control
T/C (dose: 50.0 mg/kg/injection, schedule: Q01DX009 (ip), vehicle: other): 179 % of control

COc1cc(O)c2c(O)c3c(c4c2c1[C@]1(C4)C(C)=CCCC1(C)C)[C@H](O)[C@@]1(O)CC(=O)C(C(N)=O)=C(O)[C@@]1(O)C3=O
T/C (dose: 1.56 mg/kg/injection, schedule: Q01DX009 (ip), vehicle: saline with Tween-80): 90 % of control
T/C (dose: 3.12 mg/kg/injection, schedule: Q01DX009 (ip), vehicle: saline with Tween-80): 106 % of control
T/C [7]: 117 % of control

NC(CCl)=NCC12CC3CC(CC(C3)C1)C2
T/C (dose: 1.5 mg/kg/injection, schedule: Q01DX009 (ip), vehicle: Klucel (hydroxypropylcellulose) (HPC)): 92 % of control
T/C (dose: 3.0 mg/kg/injection, schedule: Q01DX009 (ip), vehicle: Klucel (hydroxypropylcellulose) (HPC)): 104 % of control
T/C (dose: 3.13 mg/kg/injection, schedule: Q01DX009 (ip), vehicle: Klucel (hydroxypropylcellulose) (HPC)): 92 % of control
T/C (dose: 6.0 mg/kg/injection, schedule: Q01DX009 (ip), vehicle: Klucel (hydroxypropylcellulose) (HPC)): 110 % of control and 101 % of control
T/C [5]: 101 % of control
T/C (dose: 12.0 mg/kg/injection, schedule: Q01DX009 (ip), vehicle: Klucel (hydroxypropylcellulose) (HPC)): 114 % of control and 104 % of control
T/C [8]: 101 % of control
T/C [6]: 112 % of control

Cc1cn(C2CC3[O][Sn]([c]4ccccc4)([c]4ccccc4)[O]CC3O2)c(=O)[nH]c1=O (stereo not drawn)
T/C (dose: 25.0 mg/kg/injection, schedule: Q01DX009 (ip), vehicle: suspension in saline): 102 % of control
T/C (dose: 50.0 mg/kg/injection, schedule: Q01DX009 (ip), vehicle: suspension in saline): 103 % of control
T/C (dose: 100.0 mg/kg/injection, schedule: Q01DX009 (ip), vehicle: suspension in saline): 113 % of control
T/C (dose: 200.0 mg/kg/injection, schedule: Q01DX009 (ip), vehicle: suspension in saline): 93 % of control

C=C1C(C)C2C(Cc3ccccc3)NC(=O)C23C(OC(C)=O)C=CC(C)(O)C(=O)C(C)C/C=C/C3C1O (stereo not drawn)
T/C (dose: 0.31 mg/kg/injection, schedule: Q01DX009 (ip), vehicle: Klucel (hydroxypropylcellulose) (HPC)): 101 % of control
T/C (dose: 0.63 mg/kg/injection, schedule: Q01DX009 (ip), vehicle: Klucel (hydroxypropylcellulose) (HPC)): 98 % of control
T/C (dose: 1.25 mg/kg/injection, schedule: Q01DX009 (ip), vehicle: Klucel (hydroxypropylcellulose) (HPC)): 109 % of control
T/C (dose: 2.5 mg/kg/injection, schedule: Q01DX009 (ip), vehicle: Klucel (hydroxypropylcellulose) (HPC)): 101 % of control
T/C (dose: 5.0 mg/kg/injection, schedule: Q01DX009 (ip), vehicle: Klucel (hydroxypropylcellulose) (HPC)): 106 % of control

CC(=O)Nc1ccc(/C=N/NC(N)=S)cc1
T/C [9]: 93 % of control
T/C [2]: 97 % of control
T/C [3]: 90 % of control
T/C [4]: 88 % of control
T/C [10]: 92 % of control

ClCCCN1CCN(CCCl)CC1
T/C (dose: 1.25 mg/kg/injection, schedule: Q01DX009 (ip), vehicle: saline): 98 % of control
T/C (dose: 2.5 mg/kg/injection, schedule: Q01DX009 (ip), vehicle: saline): 124 % of control and 99 % of control

COc1cccc(/C=C/[N+](=O)[O-])c1OC
T/C (dose: 3.12 mg/kg/injection, schedule: Q01DX009 (ip), vehicle: Klucel (hydroxypropylcellulose) (HPC)): 100 % of control
T/C [5]: 98 % of control
T/C [8]: 94 % of control
T/C [6]: 96 % of control

COc1cc2c(c(OC)c1OC)-c1ccc(OC)c(=O)cc1[C@@H](NC(C)=O)CC2
T/C [11]: 108 % of control
T/C (dose: 0.04 mg/kg/injection, schedule: Q01DX009 (ip), vehicle: saline): 123 % of control
T/C (dose: 0.13 mg/kg/injection, schedule: Q01DX009 (ip), vehicle: Klucel (hydroxypropylcellulose) (HPC)): 158 % of control
T/C (dose: 0.19 mg/kg/injection, schedule: Q01DX009 (ip), vehicle: saline): 156 % of control
T/C (dose: 0.25 mg/kg/injection, schedule: Q01DX009 (ip), vehicle: Klucel (hydroxypropylcellulose) (HPC)): 155 % of control
T/C (dose: 0.25 mg/kg/injection, schedule: Q01DX009 (ip), vehicle: saline): 164 % of control
T/C (dose: 0.37 mg/kg/injection, schedule: Q01DX009 (ip), vehicle: saline): 167 % of control
T/C (dose: 0.38 mg/kg/injection, schedule: Q01DX009 (ip), vehicle: saline): 168 % of control
T/C (dose: 0.5 mg/kg/injection, schedule: Q01DX009 (ip), vehicle: Klucel (hydroxypropylcellulose) (HPC)): 173 % of control
T/C (dose: 0.5 mg/kg/injection, schedule: Q01DX009 (ip), vehicle: saline): 154 % of control
T/C (dose: 0.5 mg/kg/injection, schedule: Q01DX009 (ip), vehicle: water): 157 % of control
T/C (dose: 1.0 mg/kg/injection, schedule: Q01DX009 (ip), vehicle: saline): 154 % of control
T/C (dose: 125.0 micrograms/kg/injection, schedule: Q01DX009 (ip), vehicle: water): 161 % of control
T/C (dose: 250.0 micrograms/kg/injection, schedule: Q01DX009 (ip), vehicle: water): 154 % of control
T/C (dose: 500.0 micrograms/kg/injection, schedule: Q01DX009 (ip), vehicle: water): 155 % of control

N=C1CCCS1
T/C [1]: 109 % of control
T/C (dose: 50.0 mg/kg/injection, schedule: Q01DX009 (ip), vehicle: saline): 120 % of control

CCCCC(=O)OCC1OC(n2cnc3c(=S)nc[nH]c32)C(OC(=O)CCCC)C1OC(=O)CCCC (stereo not drawn)
T/C [7]: 102 % of control
T/C (dose: 12.5 mg/kg/injection, schedule: Q01DX009 (ip), vehicle: saline with Tween-80): 105 % of control
T/C [9]: 108 % of control
T/C [2]: 92 % of control

C1CN1P1(N2CC2)=NP(N2CC2)(N2CC2)=NP(N2CC2)(N2CC2)=N1
T/C (dose: 1.0 mg/kg/injection, schedule: Q01DX009 (ip), vehicle: Klucel (hydroxypropylcellulose) (HPC)): 116 % of control and 94 % of control
T/C (dose: 1.0 mg/kg/injection, schedule: Q02DX009 (ip), vehicle: Klucel (hydroxypropylcellulose) (HPC)): 113 % of control and 114 % of control
T/C (dose: 2.0 mg/kg/injection, schedule: Q01DX009 (ip), vehicle: Klucel (hydroxypropylcellulose) (HPC)): 119 % of control
T/C (dose: 2.0 mg/kg/injection, schedule: Q02DX009 (ip), vehicle: Klucel (hydroxypropylcellulose) (HPC)): 114 % of control and 106 % of control
T/C (dose: 4.0 mg/kg/injection, schedule: Q02DX009 (ip), vehicle: Klucel (hydroxypropylcellulose) (HPC)): 120 % of control and 122 % of control
T/C (dose: 8.0 mg/kg/injection, schedule: Q01DX009 (ip), vehicle: Klucel (hydroxypropylcellulose) (HPC)): 180 % of control
T/C (dose: 8.0 mg/kg/injection, schedule: Q02DX009 (ip), vehicle: Klucel (hydroxypropylcellulose) (HPC)): 117 % of control
T/C (dose: 16.0 mg/kg/injection, schedule: Q02DX009 (ip), vehicle: Klucel (hydroxypropylcellulose) (HPC)): 195 % of control

COc1cc2cc(c1Cl)N1CCC(C)(O)C(=O)NC(C)C(=O)OC(CC1=O)C1(C)OC1C(C)C1CC(O)(NC(=O)O1)C(OC)/C=C\C=C(\C)C2OC (stereo not drawn)
T/C (dose: 8.0 micrograms/kg/injection, schedule: Q01DX009 (ip), vehicle: distilled water + alcohol): 160 % of control
T/C (dose: 16.0 micrograms/kg/injection, schedule: Q01DX009 (ip), vehicle: distilled water + alcohol): 162 % of control
T/C (dose: 32.0 micrograms/kg/injection, schedule: Q01DX009 (ip), vehicle: distilled water + alcohol): 178 % of control

CC(C)OC(CCCl)c1ccccc1 (stereo not drawn)
T/C [3]: 94 % of control
T/C [4]: 87 % of control
T/C [10]: 100 % of control

CNC(=O)/C=C/C1=CN2C(=O)c3ccc(C)c(O)c3NC(OC)C2C1 (stereo not drawn)
T/C (dose: 0.01 mg/kg/injection, schedule: Q01DX009 (ip), vehicle: saline): 109 % of control and 106 % of control
T/C [11]: 109 % of control
T/C (dose: 0.03 mg/kg/injection, schedule: Q01DX009 (ip), vehicle: saline): 115 % of control
T/C (dose: 0.05 mg/kg/injection, schedule: Q01DX009 (ip), vehicle: saline): 113 % of control and 116 % of control
T/C (dose: 0.05 mg/kg/injection, schedule: Q01DX009 (ip), vehicle: suspension in saline): 98 % of control
T/C (dose: 0.1 mg/kg/injection, schedule: Q01DX009 (ip), vehicle: saline): 117 % of control and 98 % of control
T/C (dose: 0.1 mg/kg/injection, schedule: Q01DX009 (ip), vehicle: suspension in saline): 97 % of control
T/C (dose: 0.2 mg/kg/injection, schedule: Q01DX009 (ip), vehicle: saline): 119 % of control
